The subject of series [1] is Wnt/beta-catenin pathway in COLO320DM tumors. As to the kind of experiment: Tumor RNA-sequencing and GSEA in COLO320DM tumors. In kind it is in vivo, mice. The note with it: 48-hr post-dose, i.p. 30 mg/kg. From the text:
It is noted that both negatively and positively enriched gene sets were observed. Among other things, the present disclosure provides technologies for assessing efficacy of a method, e.g., a treatment, comprising assessing expression of one or more negatively and/or positively enriched genes. In some embodiments, if expression profiles of one or more genes are negatively and/or positively enriched as identified herein, a method may be considered to have efficacy, and/or administration (e.g., of provided technologies such as stapled peptides, compositions, etc.) to a subject can continue. […]
RNAseq Data Analysis. In some embodiments, sequence reads were trimmed to remove possible adapter sequences and nucleotides with poor quality using Trimmomatic v.0.39. The trimmed reads were mapped to the Homo sapiens GRCh38 reference genome available on ENSEMBL using the STAR aligner v.2.7.7a. For grafted tumor samples, host reads were removed with XenofilteR. Unique gene hit counts were calculated by using featureCounts from the R Subread package v.2.4.2. Read filtering, normalization, and differentially expression analysis was performed with the edgeR package v.4.0.2 in R. Genes with an adjusted p-value <0.01 and absolute log 2 fold change >1 were called as differentially expressed genes for each comparison. […]
RNAseq Preparation. […] On average over 60 million 2×150 base pair reads were produced per sample. […]

Series [2] addresses T1, TCF/LEF luciferase reporter in DLD1 cells (Homo sapiens, UniProt P35222).
T1 sequence (P35222 2-781): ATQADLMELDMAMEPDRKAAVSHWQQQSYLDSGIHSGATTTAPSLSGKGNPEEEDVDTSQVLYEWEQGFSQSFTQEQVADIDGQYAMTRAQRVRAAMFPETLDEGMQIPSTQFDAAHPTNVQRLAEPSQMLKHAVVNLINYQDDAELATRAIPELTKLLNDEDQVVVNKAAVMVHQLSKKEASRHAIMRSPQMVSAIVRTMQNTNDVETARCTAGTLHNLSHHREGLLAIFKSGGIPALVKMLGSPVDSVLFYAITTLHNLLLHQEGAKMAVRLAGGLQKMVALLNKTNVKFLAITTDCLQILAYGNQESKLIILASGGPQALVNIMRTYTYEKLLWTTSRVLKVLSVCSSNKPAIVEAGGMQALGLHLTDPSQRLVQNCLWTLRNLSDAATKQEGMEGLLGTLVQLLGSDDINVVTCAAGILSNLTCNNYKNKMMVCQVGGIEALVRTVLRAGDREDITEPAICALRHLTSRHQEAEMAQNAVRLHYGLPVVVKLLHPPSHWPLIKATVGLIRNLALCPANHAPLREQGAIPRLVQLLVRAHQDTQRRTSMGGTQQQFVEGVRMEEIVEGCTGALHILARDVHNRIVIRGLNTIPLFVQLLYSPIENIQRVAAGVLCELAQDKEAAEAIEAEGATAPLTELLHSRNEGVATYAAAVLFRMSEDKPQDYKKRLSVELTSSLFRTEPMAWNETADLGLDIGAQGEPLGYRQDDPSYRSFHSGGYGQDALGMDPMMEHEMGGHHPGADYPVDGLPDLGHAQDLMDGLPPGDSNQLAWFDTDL
As to the kind of experiment: TCF reporter assay in DLD1 cells (4% or 20% FBS). The settings on record: DLD1 reporter cells; read-out: TCF reporter IC50. The series is classed as cell-based. A general note: A reporter such as luciferase makes a cellular process visible.

As a reminder, the IC50 is the concentration that inhibits the measured activity by half.

In series [1], “Ac-PL3-Glu-Npg-B5-Glu-3COOHF-Aib-Ala-Phe-Lys*3-PyrS2-3Thi-BztA-GlnR*3-Ala-NH2 [I-470]” gave a concentration in tumors of 5181 ng/gram. Further, the IC50 in series [2] was > 20 µM.

These data come from US20240360179A1, “STAPLED PEPTIDES AND METHODS THEREOF” (FOG PHARMACEUTICALS, INC., priority 2021, published 2024).
